These results are taken from patent publication US6696494B2, “α-hydroxyarylbutanamine inhibitors of aspartyl protease” (Enanta Pharmaceuticals, Inc., priority 2001, dated 2004).

The target in this experiment is HIV-1 protease (Human immunodeficiency virus type 1 group M subtype B, UniProt P04585). Put plainly: Inhibition of microbial expressed viral protease (HIV-1 protease), method of Toth and Marshall. It is filed as biochemical. The protocol: Biological Assay for Inhibition of Microbial Expressed Viral Protease
The inhibition constants against HIV-1 protease were measured using the method described by M. V. Toth and G. R. Marshall, Int. J. Peptide protein Res., 1990, 544. The method described M. W. Pennington et al., Peptides 1990, Gimet, E. and D. Andrew, Eds., Escom; Leiden, Netherlands (1990) may also be used. The potency is measured as IC50in μM. The person of skill would accept these tests as predictive of the compounds' utility in vivo to treat HIV infected patients.
As a reminder, the IC50 is the concentration needed to halve the response being measured. Low readings indicate greater potency in that assay, high ones weaker potency in that assay. With `Cc1cc(Br)c(OCC(=O)N[C@@H](Cc2ccccc2)[C@H](O)CCc2ccccc2C(=O)NC(C)(C)C)c(Br)c1` [Example 001225], the concentration for half-maximal inhibition (IC50) lay in the range of 0.1 to 10 µM.
`CC(C)(C)NC(=O)c1ccccc1CC[C@@H](O)[C@H](Cc1ccccc1)NS(=O)(=O)c1cccc(Cl)c1Cl` [Example 001010] had a concentration for half-maximal inhibition (IC50) of more than 10 µM.
With `CC(Oc1ccccc1)C(=O)NC(Cc1ccccc1)C(O)CCc1ccccc1C(=O)NC(C)(C)C` (centres unmarked) [Example 000243], the IC50 was in the range of 0.1 to 10 µM.
Compound `CC(C)(C)NC(=O)c1ccccc1CC[C@@H](O)[C@H](Cc1ccccc1)NC(=O)COc1ccccc1C(F)(F)F` [Example 001204] displayed an IC50 of 0.1 to 10 µM.
For `CCOC(=O)N[C@@H](Cc1ccccc1)[C@H](O)CCc1ccccc1C(=O)NCCC(C)C` [Example 000770], the concentration for half-maximal inhibition (IC50) was in the range of 0.1 to 10 µM.
Turning to `CC(C)(C)NC(=O)c1ccccc1CC[C@@H](O)[C@H](Cc1ccccc1)NC(=O)N(c1ccccc1)c1ccccc1` [Example 001006], the IC50 lay within 0.1 to 10 µM.
On to `Cc1cccc(C)c1OCC(=O)N[C@@H](Cc1ccccc1)[C@H](O)CCc1cccc(F)c1C(=O)NC(C)(C)C` [Example 001239], for which the IC50 was less than 0.1 µM.
In the case of `CCC(CC)OCC(=O)N[C@@H](Cc1ccccc1)[C@H](O)CCc1ccccc1C(=O)NC(C)(C)C` [Example 001231], the IC50 is 0.1 to 10 µM.
In the case of `CC(C)(C)NC(=O)c1ccccc1CC[C@@H](O)[C@H](Cc1ccccc1)NC(=O)NC(=O)CCl` [Example 000869], the 50% inhibitory concentration (IC50) was more than 10 µM.
In turn, `COc1cccc(F)c1OCC(=O)N[C@@H](Cc1ccccc1)[C@H](O)CCc1ccccc1C(=O)NC(C)(C)C` [Example 001217] gave an IC50 of 0.1 to 10 µM.
The value for `CCC(C)(C)c1ccc(S(=O)(=O)N[C@@H](Cc2ccccc2)[C@H](O)CCc2ccccc2C(=O)NC(C)(C)C)cc1` [Example 000875] was 0.1 to 10 µM.
Under `COc1ccc(Br)c(C(=O)N[C@@H](Cc2ccccc2)[C@H](O)CCc2ccccc2C(=O)NC(C)(C)C)c1` [Example 000900] stands 0.1 to 10 µM; under `CC(C)(C)OC(=O)N[C@@H](Cc1ccccc1)[C@H](O)CCc1ccccc1C(=O)N[C@H](CO)c1ccccc1` [Example 001054], 0.1 to 10 µM; under `CC(C)(C)NC(=O)c1ccccc1CC[C@@H](O)[C@H](Cc1ccccc1)NS(=O)(=O)c1cccs1` [Example 000880], 0.1 to 10 µM.
Turning to `CC(C)(C)NC(=O)c1ccccc1CC[C@@H](O)[C@H](Cc1ccccc1)NC(=O)c1ccc(Cl)cc1Cl` [Example 000902], the half-maximal inhibitory concentration (IC50) lay within 0.1 to 10 µM.
The value for `CC(C)(C)NC(=O)c1ccccc1CC[C@@H](O)[C@H](Cc1ccccc1)NC(=O)c1ccc(F)cc1F` [Example 000901] was 0.1 to 10 µM.
In turn, `CC(C)(C)NC(=O)c1ccccc1CC[C@@H](O)[C@H](Cc1ccccc1)NC(=O)COc1ccc(F)c(F)c1F` [Example 001227] had a 50% inhibitory concentration (IC50) of 0.1 to 10 µM.
Turning to `Cc1ccccc1S(=O)(=O)NC(=O)N[C@@H](Cc1ccccc1)[C@H](O)CCc1ccccc1C(=O)NC(C)(C)C` [Example 001014], the concentration for half-maximal inhibition (IC50) fell in the range of 0.1 to 10 µM.
Under `Cc1cc(Br)cc(C)c1OCC(=O)N[C@@H](Cc1ccccc1)[C@H](O)CCc1ccccc1C(=O)NC(C)(C)C` [Example 001218] stands less than 0.1 µM; under `Cc1c(N)cccc1C(=O)N[C@@H](Cc1ccccc1)[C@H](O)CCc1ccccc1C(=O)NC(C)(C)C` [Example 000945], more than 10 µM; under `Cc1ccc(CO)cc1C(=O)N[C@@H](Cc1ccccc1)[C@H](O)CCc1ccccc1C(=O)NC(C)(C)C` [Example 000895], less than 0.1 µM.
`CC(C)(C)NC(=O)c1ccccc1CC[C@@H](O)[C@H](Cc1ccccc1)NC(=O)c1cccc([N+](=O)[O-])c1Br` [Example 000946] displayed a 50% inhibitory concentration (IC50) of more than 10 µM.
Regarding `CC(C)(C)NC(=O)c1ccccc1CCC(O)C(Cc1ccccc1)NC(=O)C(F)=Cc1ccccc1` (centres unmarked) [Example 000947], the IC50 is more than 10 µM.
Under `CC(C)(C)NC(=O)c1ccccc1CC[C@@H](O)[C@H](Cc1ccccc1)NC(=O)c1cc(=O)c2ccccc2o1` [Example 000974] stands more than 10 µM.
On to `CC(C)(C)NC(=O)c1ccccc1CC[C@@H](O)[C@H](Cc1ccccc1)NC(=O)COC1CCCCC1` [Example 001228], for which the 50% inhibitory concentration (IC50) lay in the range of 0.1 to 10 µM.
As to `Cc1cccc(C)c1OCC(=O)N[C@@H](Cc1ccccc1)[C@H](O)CCc1ccccc1C(=O)NC(C)(C)C` [Example 000987], the half-maximal inhibitory concentration (IC50) was less than 0.1 µM.
In turn, `CC(C)(C)NC(=O)c1ccccc1CC[C@@H](O)[C@H](Cc1ccccc1)NC(=O)COc1ccccc1` [Example 000244] displayed a half-inhibitory concentration (IC50) of 0.1 to 10 µM.
Under `CC(C)(C)NC(=O)c1ccccc1CC[C@@H](O)[C@H](Cc1ccccc1)NS(=O)(=O)c1cccc2cccnc12` [Example 00878] stands 0.1 to 10 µM; under `CC(C)(C)NC(=O)c1ccccc1CC[C@@H](O)[C@H](Cc1ccccc1)NC(=O)N1c2ccccc2Sc2ccccc21` [Example 00241], more than 10 µM; under `CC(C)(C)NC(=O)c1ccccc1CC[C@@H](O)[C@H](Cc1ccccc1)NC(=O)O[C@H]1CCOC1` [Example 000180], less than 0.1 µM.
Regarding `CC(C)(C)NC(=O)c1ccccc1CC[C@@H](O)[C@H](Cc1ccccc1)NC(=O)c1ccccc1` [Example 000245], the IC50 lay within 0.1 to 10 µM.
`CC(C)(C)NC(=O)c1ccccc1CC[C@@H](O)[C@H](Cc1ccccc1)NS(=O)(=O)c1ccc(C(F)(F)F)cc1` [Example 000877]: the IC50 lay within 0.1 to 10 µM.
Under `CC(C)(C)NC(=O)c1ccccc1CC[C@@H](O)[C@H](Cc1ccccc1)NC(=O)c1ccccc1Nc1ccccc1` [Example 001020] stands more than 10 µM; under `Cc1c(O)cccc1OCC(=O)N[C@@H](Cc1ccccc1)[C@H](O)CCc1ccccc1C(=O)NC(C)(C)C` [Example 001246], less than 0.1 µM.
Under `CC(C)(C)NC(=O)c1ccccc1CC[C@@H](O)[C@H](Cc1ccccc1)NC(=O)c1ccccc1C(=O)c1ccccc1N` [Example 001040] stands 0.1 to 10 µM.
Compound `CCCCNC(=O)N[C@@H](Cc1ccccc1)[C@H](O)CCc1ccccc1C(=O)NC(C)(C)C` [Example 000891] gave a half-inhibitory concentration (IC50) of 0.1 to 10 µM.
For the compound `CN(C)c1ccc(C(=O)N[C@@H](Cc2ccccc2)[C@H](O)CCc2ccccc2C(=O)NC(C)(C)C)cc1` [Example 000954], the IC50 is more than 10 µM.
Under `CCc1ccc(S(=O)(=O)N[C@@H](Cc2ccccc2)[C@H](O)CCc2ccccc2C(=O)NC(C)(C)C)cc1` [Example 000874] stands 0.1 to 10 µM; under `CC(C)(C)NC(=O)c1ccccc1CC[C@@H](O)[C@H](Cc1ccccc1)NC(=O)COc1cc(F)cc(F)c1` [Example 001182], more than 10 µM.
The value for `CC(C)(C)NC(=O)c1ccccc1CC[C@@H](O)[C@H](Cc1ccccc1)NC(=O)COc1c(Cl)cc(Cl)cc1Cl` [Example 001224] was less than 0.1 µM; that for `CC(C)(C)NC(=O)c1ccccc1CC[C@@H](O)[C@H](Cc1ccccc1)NC(=O)Nc1ccc([N+](=O)[O-])cc1` [Example 000889] was 0.1 to 10 µM.
